# Data published in ChEMBL document CHEMBL5360614, “Quinoline Thiourea-Based Zinc Ionophores with Antibacterial Activity” (J Med Chem, 2023).
# Calls of active or inactive are those of the source. No cut-off for these calls is given here.
# What was measured:
# Cell membrane [1] = assay: Induction of cell membrane depolarization in Staphylococcus aureus MTCC-96 assessed as change in fluorescence intensity at 3.13 uM by DiSC3-5 dye based fluorescence method; type: subcellular
# HCT-116 = assay: Cytotoxicity against human HCT-116 cells assessed as reduction in cell viability at 1 to 100 uM incubated for 44 hrs by MTT assay; type: toxicity, cell-based; details: hct-116, 44 h, dose 1-100 µM
# Staphylococcus aureus [2] = assay: Induction of intracellular ROS generation in Staphylococcus aureus MTCC-96 assessed as change in fluorescence intensity at 1 uM incubated for 30 mins in presence of Zn2+ ions by DCF-DA staining based fluorescence spectroscopic analysis; type: functional, organism-based
# Staphylococcus aureus [3] = assay: Antibacterial activity against gentamicin-and methicillin-resistant Staphylococcus aureus ATCC 33592 assessed as reduction in bacterial growth incubated for 14 to 16 hrs in presence of 100 uM ZnCl2 by microbroth dilution method; type: functional; details: time 14-16 hrs
# Lipid bilayer [4] = assay: (§1) Induction of ionophore activity across EYPC:CHOL (8:2) large unilamellar vesicles assessed as transmembrane Zn2+ ion transport by measuring decrease in fluorescence intensity for HPTS dye preincubated for 3 mins followed by ZnCl2 addition and mesured after 7.5 mins by HPTS dye based fluorescence spectrophotometric analysis
# Cell membrane [5] = assay: Induction of ionophore activity across Staphylococcus aureus MTCC-96 cell membrane assessed as AQZ directed Zn2+ ion transport by measuring increase in AQZ fluorescence intensity in presence of ZnCl2 and 2-((2-(2-hydroxyethoxy)ethyl)-amino)-N-(quinolin-8-yl)acetamide by fluorescence analysis; type: subcellular; details: filed as opener
# PBMC = assay: Cytotoxicity against human PBMC cells assessed as reduction in cell viability at 12.5 to 200 uM incubated for 24 hrs in presence of ZnCl2 by MTT assay; type: toxicity, cell-based; details: dose 12.5-200 µM
# Lipid bilayer [6] = assay: as §1, with “cation” for “Zn2+ ion”, “KCl” for “ZnCl2”; details: time 10.5 min
# Lipid bilayer [7] = assay: as §1, with “HPTS dye at 25 uM preincubated for” for “HPTS dye preincubated for”, “followed by 1 to 25 mM ZnCl2 addition” for “followed by ZnCl2 addition”; details: filed as opener, time 10.5 min
# Staphylococcus aureus [8] = assay: Antibacterial activity against Staphylococcus aureus MTCC-96 assessed as fold reduction in bacterial growth incubated for 14 to 16 hrs in presence of 400 uM ZnCl2 by microbroth dilution method; type: functional; details: time 14-16 hrs
# Staphylococcus aureus [9] = assay: In vivo antibacterial activity against Staphylococcus aureus MTCC-96 infected in Balb/c mouse assessed as uniform distribution of hepatic lobules in liver tissue at 156.5 microM/Kg, iv for 7 days by hematoxylin and eosin staining based microscopic analysis; type: functional, organism-based; details: time 7.0 day
# Lipid bilayer [10] = assay: Induction of ionophore activity across EYPC:CHOL (8:2) large unilamellar vesicles assessed as transmembrane Zn2+ ion transport by measuring fluorescence intensity for CFZ dye at 10 uM preincubated for 3 mins followed by ZnCl2 addition and mesured after 7.5 mins by CFZ dye based fluorescence spectrophotometric analysis; details: filed as opener, time 10.5 min
# Staphylococcus aureus [11] = assay: Antibacterial activity against gentamicin-and methicillin-resistant Staphylococcus aureus ATCC 33592 assessed as reduction in bacterial growth incubated for 14 to 16 hrs in presence of 400 uM ZnCl2 by microbroth dilution method; type: functional; details: time 14-16 hrs
smiles,measurement,setting,value
FC(F)(F)c1cc(NC(=S)Nc2cccc3ccc(-n4cnc5ccccc54)nc23)cc(C(F)(F)F)c1,Activity,Cell membrane [1],inactive
same,Activity,HCT-116,Non-Toxic
same,Activity,Staphylococcus aureus [2],Active
same,MIC,Staphylococcus aureus [3],3.13 µM
same,EC50,Lipid bilayer [4],5.49 µM
same,Activity,Cell membrane [5],Active
same,Activity,PBMC,Non-Toxic
same,Activity,Lipid bilayer [6],inactive
same,Activity,Lipid bilayer [7],Active
same,fold change (FC),Staphylococcus aureus [8],6.65
same,Activity,Staphylococcus aureus [9],Active
same,Activity,Lipid bilayer [10],Active
same,MIC,Staphylococcus aureus [11],2 µM
